Data taken from patent publication US20220324865A1 (Bayer Aktiengesellschaft, priority 2018, published 2022).

molecular target: T1, human EP3 receptor (Homo sapiens, UniProt P43115); experiment: Cellular in vitro assay for determining EP3 receptor activity (human EP3 cell line, sulprostone-stimulated calcium luminescence); format: cell-based; conditions: CHO cells expressing human EP3 and mitochondrial Clytin; antagonist mode, sulprostone at EC50; read-out: EP3 CHO mtCLY ANTAG IC50
T1 construct: expressed in transfected cells; host or cells: CHO K1 (Chinese Hamster Ovary), stably co-transfected with Galpha16 and mitochondrial clytin
T1 sequence (P43115 1-390): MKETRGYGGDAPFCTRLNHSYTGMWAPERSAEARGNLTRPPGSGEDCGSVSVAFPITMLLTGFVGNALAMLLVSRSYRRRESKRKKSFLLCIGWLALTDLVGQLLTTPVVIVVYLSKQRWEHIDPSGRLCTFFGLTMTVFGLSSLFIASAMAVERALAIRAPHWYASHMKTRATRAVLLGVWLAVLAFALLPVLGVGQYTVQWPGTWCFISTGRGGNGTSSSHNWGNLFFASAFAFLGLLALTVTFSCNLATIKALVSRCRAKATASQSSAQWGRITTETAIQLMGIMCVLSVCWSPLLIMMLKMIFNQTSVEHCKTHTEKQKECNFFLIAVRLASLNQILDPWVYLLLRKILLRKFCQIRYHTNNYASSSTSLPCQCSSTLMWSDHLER
Procedure, shortened: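 Antagonist activity was measured as inhibition of the luminescent calcium signal elicited by EC50 sulprostone, following 10 min compound pretreatment. The cell line was recombinant CHO K1 co-expressing human EP3, Gα16 and the photoprotein Clytin, reconstituted with coelenterazine.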

IC50	Compound
2.9 nM	CCn1cc(Cl)c(CNC(=O)c2nn3c(C)c(-c4ccc5ccccc5c4)[nH]c(=O)c3c2C)n1 [Example 3-8, N-[(4-Chloro-1-ethyl-1H-pyrazol-3-yl)methyl]-3,7-dimethyl-6-(naphthalen-2-yl)-4-oxo-4,5-dihydropyrazolo[1,5-a]pyrazine-2-carboxamide]
1.95 nM	Cc1nn(C)cc1CNC(=O)c1nn2c(C)c(-c3ccc4ccccc4c3)[nH]c(=O)c2c1C [Example 3-9, N-[(1,3-Dimethyl-1H-pyrazol-4-yl)methyl]-3,7-dimethyl-6-(naphthalen-2-yl)-4-oxo-4,5-dihydropyrazolo[1,5-a]pyrazine-2-carboxamide]
2.75 nM	Cc1c(C(=O)NC(C)CC2CC2)nn2c(C)c(-c3ccc4ccccc4c3)[nH]c(=O)c12 (stereo not drawn) [Example 3-10, N-(1-Cyclopropylpropan-2-yl)-3,7-dimethyl-6-(2-naphthyl)-4-oxo-4,5-dihydropyrazolo[1,5-a]pyrazine-2-carboxamide]
2.05 nM	Cc1c(C(=O)NCc2ccnn2C)nn2c(C)c(-c3ccc4ccccc4c3)[nH]c(=O)c12 [Example 3-11, 3,7-Dimethyl-N-[(1-methyl-1H-pyrazol-5-yl)methyl]-6-(naphthalen-2-yl)-4-oxo-4,5-dihydropyrazolo[1,5-a]pyrazine-2-carboxamide]
1.75 nM	CCn1nccc1C(C)NC(=O)c1nn2c(C)c(-c3ccc4ccccc4c3)[nH]c(=O)c2c1C (stereo not drawn) [Example 3-12, N-[1-(1-Ethyl-1H-pyrazol-5-yl)ethyl]-3,7-dimethyl-6-(2-naphthyl)-4-oxo-4,5-dihydropyrazolo[1,5-a]pyrazine-2-carboxamide]
7.15 nM	Cc1c(C(=O)NC2Cc3ccccc3C2)nn2c(C)c(-c3ccc4ccccc4c3)[nH]c(=O)c12 [Example 3-13, N-(2,3-Dihydro-1H-inden-2-yl)-3,7-dimethyl-6-(naphthalen-2-yl)-4-oxo-4,5-dihydropyrazolo[1,5-a]pyrazine-2-carboxamide]
1.25 nM	CCn1cc(CNC(=O)c2nn3c(C)c(-c4ccc5ccccc5c4)[nH]c(=O)c3c2C)c(C)n1 [Example 3-14, N-[(1-Ethyl-3-methyl-1H-pyrazol-4-yl)methyl]-3,7-dimethyl-6-(naphthalen-2-yl)-4-oxo-4,5-dihydropyrazolo[1,5-a]pyrazine-2-carboxamide]
9.55 nM	Cc1cc(CNC(=O)c2nn3c(C)c(-c4ccc5ccccc5c4)[nH]c(=O)c3c2C)on1 [Example 3-15, 3,7-Dimethyl-N-[(3-methyl-1,2-oxazol-5-yl)methyl]-6-(naphthalen-2-yl)-4-oxo-4,5-dihydropyrazolo[1,5-a]pyrazine-2-carboxamide]
7.2 nM	Cc1c(C(=O)NC(C)c2ccc(Cl)c(Cl)c2)nn2c(C)c(-c3ccc4ccccc4c3)[nH]c(=O)c12 (stereo not drawn) [Example 3-16, N-[1-(3,4-Dichlorophenyl)ethyl]-3,7-dimethyl-6-(2-naphthyl)-4-oxo-5H-pyrazolo[1,5-a]pyrazine-2-carboxamide]
1.8 nM	Cc1c(C(=O)NC(C)c2ccccn2)nn2c(C)c(-c3ccc4ccccc4c3)[nH]c(=O)c12 (stereo not drawn) [Example 3-17, 3,7-Dimethyl-6-(2-naphthyl)-4-oxo-N-[1-(2-pyridyl)ethyl]-5H-pyrazolo[1,5-a]pyrazine-2-carboxamide]
3.75 nM	Cc1c(C(=O)NC(C)c2ccc(S(N)(=O)=O)cc2)nn2c(C)c(-c3ccc4ccccc4c3)[nH]c(=O)c12 (stereo not drawn) [Example 3-18, 3,7-Dimethyl-6-(2-naphthyl)-4-oxo-N-[1-(4-sulfamoylphenyl)ethyl]-5H-pyrazolo[1,5-a]pyrazine-2-carboxamide]
1.55 nM	Cc1ccc([C@@H](C)NC(=O)c2nn3c(C)c(-c4ccc5ccccc5c4)[nH]c(=O)c3c2C)cc1 [Example 3-19, 3,7-Dimethyl-N-[(7R)-1-(4-methylphenyl)ethyl]-6-(naphthalen-2-yl)-4-oxo-4,5-dihydropyrazolo[1,5-a]pyrazine-2-carboxamide]
